Laboratory results as given in ChEMBL document CHEMBL4038276 (Bioorg Med Chem, 2017).
The source made the active and inactive calls. The calls are words filed in the database; no cut-off is given here.

Tests used:
[1] = target: Mu-type opioid receptor (Rattus norvegicus) (UniProt P33535); conditions: at 100 nM
[2] = target: Mu-type opioid receptor (Rattus norvegicus) (UniProt P33535); test: Agonist activity at rat mu opioid receptor expressed in rat C6 cell membranes assessed as stimulation of [35S]GTPgammaS binding incubated for 1 hr by liquid scintillation counting method relative to DAMGO; format: functional
[3] = target: T1, Mu-type opioid receptor (Rattus norvegicus, UniProt P33535); test: Agonist activity at rat mu opioid receptor expressed in rat C6 cell membranes assessed as stimulation of [35S]GTPgammaS binding incubated for 1 hr by liquid scintillation counting method; format: functional
[4] = target: T1, Mu-type opioid receptor
[5] = target: Kappa-type opioid receptor (Rattus norvegicus) (UniProt P34975); test: Displacement of [3H]U-69,593 from kappa opioid receptor in rat brain at 100 nM after 60 mins by liquid scintillation counting method relative to control
[6] = target: Delta-type opioid receptor (Rattus norvegicus) (UniProt P33533); test: Displacement of [3H]DADLE from delta opioid receptor in rat brain at 100 nM after 60 mins by liquid scintillation counting method relative to control
[7] = target: T2, Delta-type opioid receptor (Rattus norvegicus, UniProt P33533); test: Agonist activity at rat delta opioid receptor expressed in rat C6 cell membranes assessed as stimulation of [35S]GTPgammaS binding incubated for 1 hr by liquid scintillation counting method; format: functional
[8] = target: T2, Delta-type opioid receptor; test: Displacement of [3H]DADLE from delta opioid receptor in rat brain after 60 mins by liquid scintillation counting method
[9] = target: Delta-type opioid receptor (Rattus norvegicus) (UniProt P33533); test: Agonist activity at rat delta opioid receptor expressed in rat C6 cell membranes assessed as stimulation of [35S]GTPgammaS binding incubated for 1 hr by liquid scintillation counting method relative to DPDPE; format: functional
[10] = species on record: Rattus norvegicus; test: Selectivity ratio of EC50 for rat delta opioid receptor to EC50 for rat mu opioid receptor
[11] = target: Kappa-type opioid receptor (Rattus norvegicus, UniProt P34975); test: Displacement of [3H]U-69,593 from kappa opioid receptor in rat brain after 60 mins by liquid scintillation counting method
[12] = target: T3, Kappa-type opioid receptor (Homo sapiens, UniProt P41145); test: Agonist activity at human kappa opioid receptor expressed in CHO cell membranes assessed as stimulation of [35S]GTPgammaS binding incubated for 1 hr by liquid scintillation counting method relative to U-69,593; format: functional
[13] = Selectivity ratio of EC50 for human kappa opioid receptor expressed in CHO cell membranes to EC50 for rat mu opioid receptor expressed in rat C6 cell membranes; format: cell-based
[14] = target: T3, Kappa-type opioid receptor; test: Agonist activity at human kappa opioid receptor expressed in CHO cell membranes assessed as stimulation of [35S]GTPgammaS binding incubated for 1 hr by liquid scintillation counting method; format: functional
[15] = target: Mu-type opioid receptor (Rattus norvegicus) (UniProt P33535); test: Antagonist activity at rat brain mu opioid receptor expressed in rat C6 cell membranes assessed as inhibition of DAMGO-induced [35S]GTPgammaS binding at 1 uM after 1 hr by liquid scintillation counting method; format: functional
[16] = target: Mu-type opioid receptor (Rattus norvegicus) (UniProt P33535); test: Antagonist activity at rat mu opioid receptor expressed in rat C6 cell membranes assessed as inhibition of DAMGO-induced [35S]GTPgammaS binding measured after 1 hr by liquid scintillation counting method; format: functional
[17] = target: T3, Kappa-type opioid receptor; test: Antagonist activity at human kappa opioid receptor expressed in CHO cell membranes assessed as inhibition of U-69,593-induced [35S]GTPgammaS binding measured after 1 hr by liquid scintillation counting method; format: functional

T3 sequence (P41145 whole entry): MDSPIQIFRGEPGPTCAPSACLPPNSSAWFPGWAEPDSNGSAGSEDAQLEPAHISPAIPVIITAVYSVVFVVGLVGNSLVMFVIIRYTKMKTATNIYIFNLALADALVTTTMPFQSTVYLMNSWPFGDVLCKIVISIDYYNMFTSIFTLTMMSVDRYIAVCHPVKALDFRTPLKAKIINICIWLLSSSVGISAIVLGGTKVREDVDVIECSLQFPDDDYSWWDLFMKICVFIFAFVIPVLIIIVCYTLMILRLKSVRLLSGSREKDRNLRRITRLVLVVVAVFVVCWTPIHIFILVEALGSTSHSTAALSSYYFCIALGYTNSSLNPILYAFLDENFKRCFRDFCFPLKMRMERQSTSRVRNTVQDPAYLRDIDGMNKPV
Sequence of Delta-type opioid receptor (Rattus norvegicus) (P33533 whole entry): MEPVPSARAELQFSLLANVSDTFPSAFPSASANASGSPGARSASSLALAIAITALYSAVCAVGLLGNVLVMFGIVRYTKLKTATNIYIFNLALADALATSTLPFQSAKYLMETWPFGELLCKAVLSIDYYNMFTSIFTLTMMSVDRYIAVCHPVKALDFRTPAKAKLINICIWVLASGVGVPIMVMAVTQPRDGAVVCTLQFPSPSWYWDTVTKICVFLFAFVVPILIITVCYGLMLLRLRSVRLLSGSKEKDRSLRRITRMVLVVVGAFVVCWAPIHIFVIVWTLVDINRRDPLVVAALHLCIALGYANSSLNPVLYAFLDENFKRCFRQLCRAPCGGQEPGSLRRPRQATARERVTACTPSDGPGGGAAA
T2 sequence (P33533 whole entry): as above
T1 sequence (P33535 whole entry): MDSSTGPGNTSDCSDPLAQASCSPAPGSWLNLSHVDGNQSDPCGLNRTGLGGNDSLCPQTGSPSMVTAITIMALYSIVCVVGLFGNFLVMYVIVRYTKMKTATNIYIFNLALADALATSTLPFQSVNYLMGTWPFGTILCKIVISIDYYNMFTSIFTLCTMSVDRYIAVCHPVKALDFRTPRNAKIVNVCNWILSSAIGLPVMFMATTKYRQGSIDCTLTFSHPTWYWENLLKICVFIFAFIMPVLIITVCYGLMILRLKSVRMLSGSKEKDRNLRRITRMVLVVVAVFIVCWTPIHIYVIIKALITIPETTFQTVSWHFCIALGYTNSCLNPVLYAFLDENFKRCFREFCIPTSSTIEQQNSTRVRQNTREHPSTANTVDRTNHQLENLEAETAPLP
Sequence of Mu-type opioid receptor (Rattus norvegicus) (P33535 whole entry): as above
Sequence of Kappa-type opioid receptor (Rattus norvegicus) (P34975 whole entry): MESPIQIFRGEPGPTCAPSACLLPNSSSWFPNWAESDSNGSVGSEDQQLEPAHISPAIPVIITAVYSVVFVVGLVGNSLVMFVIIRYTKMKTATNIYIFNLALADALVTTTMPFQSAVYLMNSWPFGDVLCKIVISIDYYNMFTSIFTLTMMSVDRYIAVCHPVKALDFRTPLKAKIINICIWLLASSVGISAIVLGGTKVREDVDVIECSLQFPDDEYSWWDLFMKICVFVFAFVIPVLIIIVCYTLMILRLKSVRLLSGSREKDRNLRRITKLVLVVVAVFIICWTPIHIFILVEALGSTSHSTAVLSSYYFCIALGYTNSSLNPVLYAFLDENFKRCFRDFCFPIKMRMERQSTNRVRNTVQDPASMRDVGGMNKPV
Sequence of Kappa-type opioid receptor (Rattus norvegicus, UniProt P34975) (P34975 whole entry): as above

SMILES | inhibition [1] [%] | Activity [2] [%] | EC50 [3] [nM] | Ki [4] [nM] | inhibition [5] [%] | inhibition [6] [%] | EC50 [7] [nM] | Ki [8] [nM] | Activity [9] [%] | Ratio EC50 [10] | Ki [11] [nM] | Activity [12] [%] | Ratio EC50 [13] | EC50 [14] [nM] | Ke [15] [nM] | inhibition [16] | inhibition [17]
Oc1cccc([C@]23CCC[C@H]([C@@H]2O)N(C[C@@H]2C[C@@H]2c2ccccc2)CC3)c1 | > 50 | 22 | 797 | 11.6 | < 50 | < 50 | – | – | – | – | – | – | – | – | – | – | –
Oc1cccc([C@]23CCC[C@H]([C@H]2O)N(CCc2ccccc2)CC3)c1 | > 50 | 120 | 22 | 0.265 | – | > 50 | 1080 | 19.2 | 100 | – | – | – | – | – | – | – | –
Oc1cccc(C23CCCC(C2O)N(C/C=C/c2ccccc2)CC3)c1 (single isomer, unassigned) | > 50 | 20 | 1.9 | 0.741 | < 50 | > 50 | 253 | 17.8 | 51 | 133 | – | – | – | – | – | – | –
C=CCN1CC[C@@]2(c3cccc(O)c3)CCC[C@@H]1[C@H]2O | > 50 | 67 | 2060 | 29.2 | < 50 | < 50 | – | – | – | – | – | – | – | – | – | – | –
Oc1cccc([C@]23CCC[C@H]([C@H]2O)N(CCc2ccc(C(F)(F)F)cc2)CC3)c1 | > 50 | 83 | 19 | 1.99 | > 50 | > 50 | 901 | 161 | 50 | 47 | 29.9 | 18 | 40 | 761 | – | – | –
CN1CC[C@]23c4c5ccc(O)c4O[C@H]2[C@@H](O)C=C[C@H]3[C@H]1C5 | > 50 | – | – | – | – | – | – | – | – | – | – | – | – | – | – | – | –
O=[N+]([O-])c1ccc(CCN2CC[C@]3(c4cccc(O)c4)CCC[C@H]2[C@@H]3O)cc1 | > 50 | – | – | 26.5 | < 50 | < 50 | – | – | – | – | – | – | – | – | 31.5 | Active | –
C=CCN1C[C@H](C)N([C@H](c2ccc(C(=O)N(CC)CC)cc2)c2cccc(OC)c2)C[C@H]1C | – | – | – | – | – | > 50 | – | – | – | – | – | – | – | – | – | – | –
Oc1cccc([C@]23CCC[C@H]([C@@H]2O)N(C[C@H]2C[C@H]2c2ccccc2)CC3)c1 | > 50 | – | – | 51.8 | < 50 | < 50 | – | – | – | – | – | – | – | – | – | Active | –
O=[N+]([O-])c1ccc(CCN2CC[C@@]3(c4cccc(O)c4)CCC[C@@H]2[C@H]3O)cc1 | > 50 | 104 | 0.74 | 0.073 | > 50 | > 50 | 630 | 9.81 | 104 | 850 | 54.5 | – | – | – | – | – | Active
CC[C@]12CCN(CC3CC3)[C@H](C(=O)c3ccc(O)cc31)[C@H]2C | – | – | – | – | – | – | – | – | – | – | – | 93 | – | – | – | – | –
Oc1cccc([C@@]23CCC[C@@H]([C@@H]2O)N(CC/C=C/c2ccccc2)CC3)c1 | > 50 | – | – | 25 | < 50 | < 50 | – | – | – | – | – | – | – | – | – | Active | –
Oc1cccc([C@]23CCC[C@H]([C@@H]2O)N(C[C@@H]2C[C@H]2c2ccccc2)CC3)c1 | > 50 | – | – | 44.5 | < 50 | < 50 | – | – | – | – | – | – | – | – | – | Active | –
